In the supplement of paper PMC8967900:

How the values were obtained:
Assay in all cases: selective drug sensitivity score (sDSS, relative to normal bone marrow) (sDSS (score)); higher = more potent and effective on the cell line relative to normal bone marrow cells
Settings in all cases: 72 h
380 = tested on: 380
COG-LL-394h = tested on: COG-LL-394h
COG-LL-402h = tested on: COG-LL-402h
HPB-ALL = tested on: HPB-ALL
KARPAS-45 = tested on: KARPAS-45
KASUMI-10 = tested on: KASUMI-10
KOPN-8 = tested on: KOPN-8
MHH-CALL-2 = tested on: MHH-CALL-2
MHH-CALL-3 = tested on: MHH-CALL-3
MHH-CALL-4 = tested on: MHH-CALL-4
MN-60 = tested on: MN-60
MOLT-14 = tested on: MOLT-14
NALL-1 = tested on: NALL-1
NALM-16 = tested on: NALM-16
P30-OHKUBO = tested on: P30-OHKUBO
RCH-ACV = tested on: RCH-ACV
REH = tested on: REH
SEM cells = tested on: SEM cells
TANOUE = tested on: TANOUE
TMD5 = tested on: TMD5
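Note: ALL cell lines in 384-well plates, five doses spanning 10,000-fold, each plate scaled between vehicle and 100 µmol/L benzalkonium chloride controls, sDSS an adapted area-under-curve metric.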

SMILES	selective drug sensitivity score 380	selective drug sensitivity score (COG-LL-394h)	selective drug sensitivity score (COG-LL-402h)	selective drug sensitivity score (HPB-ALL)	selective drug sensitivity score (KARPAS-45)	selective drug sensitivity score (KASUMI-10)	selective drug sensitivity score (KOPN-8)	selective drug sensitivity score (MHH-CALL-2)	selective drug sensitivity score (MHH-CALL-3)	selective drug sensitivity score (MHH-CALL-4)	selective drug sensitivity score (MN-60)	selective drug sensitivity score (MOLT-14)	selective drug sensitivity score (NALL-1)	selective drug sensitivity score (NALM-16)	selective drug sensitivity score (P30-OHKUBO)	selective drug sensitivity score (RCH-ACV)	selective drug sensitivity score (REH)	selective drug sensitivity score (SEM cells)	selective drug sensitivity score (TANOUE)	selective drug sensitivity score (TMD5)
CCc1cncnc1N1CCN(Cc2nc3cc(C(F)(F)F)ccc3[nH]2)CC1 (top concentration 10000 nM)	-0.84	4.56	-0.84	0.96	2.46	2.76	8.36	5.56	2.46	5.46	1.96	0.16	8.66	0.06	5.26	6.46	6.26	9.76	3.26	-0.84
CC[C@H](C)C(=O)O[C@H]1C[C@@H](C)C=C2C=C[C@H](C)[C@H](CC[C@@H]3C[C@@H](O)CC(=O)O3)[C@H]21 [Lovastatin] (top concentration 10000 nM)	7.8	-0.1	-0.1	-0.1	3	-0.1	4.3	8.7	8.4	-0.1	-0.1	-0.1	-0.1	-0.1	2.5	0.2	1	5	-0.1	-0.1
CNc1nc(Nc2cn(C(C)(C)C#N)nc2C)ncc1C(F)(F)F [GNE-0877] (top concentration 1000 nM)	0	0	0	0	0	0	0	0	0	0	0	0	0	0	0	0	0.8	0	0	0
